In patent publication US12606567B2, “Salts and forms of a WEE1 inhibitor” (Recurium IP Holdings, LLC, priority 2020, dated 2026):
In brackets after ≈: the same amount, converted by molar mass. Counter-ions that a name gives are not always drawn.

What was measured:
Type in all cases: physicochemical
[1] = Thermodynamic stability compared with the amorphous freebase (TGA); conditions: compared with amorphous freebase of Compound A
Description: The TGA curve of the amorphous freebase of Compound A indicated a substantial and gradual weight loss starting at 30° C. and continuing to 150° C. with a total of about 17% loss.
TGA data were collected using a TA Q5000/Discovery 5500 TGA from TA Instruments. DSC was performed using a TA Q2000/Discovery 2500 DSC from TA Instruments.

[2] = Solid-state stability of the forms under storage (HPLC purity, XRPD form); conditions: for Form change on storage: all tested stability conditions
Description: It only slightly degraded at 60° C. after 2 weeks and at 80° C. after 3 days.

[3] = Hygroscopicity by DVS isotherm at 25° C. between 0% RH and 95% RH, XRPD after DVS; conditions: for Water uptake (DVS): 25° C./80% RH; for Form change after DVS test (XRPD): after DVS at 25° C., 0% RH-95% RH
Description: DVS data was measured via a SMS (Surface Measurement Systems) DVS Intrinsic. The relative humidity at 25° C. was calibrated against the deliquescence point of LiCl, Mg(NO3)2 and KCl.

[4] = Equilibrium solubility in SGF, H2O, FaSSIF and FeSSIF, slurry at 37° C. for 24 hrs; conditions: for Form of residual solid (XRPD) / Solubility / pH of supernatant: 37° C., 24 hrs
Description: About 10-50 mg of each sample was weighed into 1.0 mL of each medium followed by slurry at 37° C. for 24 hrs. The samples were centrifuged and filtered using 0.45 μm PTFE filter. The solids were tested by XRPD and the supernatants were tested by HPLC and pH.

[5] = Initial, for the 25° C./60% RH, 40° C./75% RH and 60° C. series

Row | Purity (area %) ([2]; 25° C./60% RH, 2 week) | Purity/Initial (%) ([2]; 25° C./60% RH, 2 week) | Purity (area %) ([2]; 25° C./60% RH, 4 week) | Purity/Initial (%) ([2]; 25° C./60% RH, 4 week) | Purity (area %) ([2]; 40° C./75% RH, 2 week) | Purity/Initial (%) ([2]; 40° C./75% RH, 2 week) | Purity (area %) ([2]; 40° C./75% RH, 4 week) | Purity/Initial (%) ([2]; 40° C./75% RH, 4 week) | Purity (area %) ([2]; 60° C., 2 week) | Purity/Initial (%) ([2]; 60° C., 2 week) | Purity (area %) ([2]; 60° C., 4 week) | Purity/Initial (%) ([2]; 60° C., 4 week) | Purity (area %) ([2]; 80° C., 1 day) | Purity/Initial (%) ([2]; 80° C., 1 day) | Purity (area %) ([2]; 80° C., 3 day) | Purity/Initial (%) ([2]; 80° C., 3 day) | Purity (area %) ([2]; 80° C., 7 day) | Purity/Initial (%) ([2]; 80° C., 7 day) | Purity (area %) [2, 5] | Compound | Thermodynamic stability [1] | also measured
1 | 99.37 area % | 100.0% | 99.39 area % | 100.0% | 99.45 area % | 100.1% | 99.45 area % | 100.1% | 99.35 area % | 100.0% | 99.16 area % | 99.8% | 99.48 area % | 100.0% | 99.31 area % | 99.9% | 99.12 area % | 99.7% | 99.35 area % | C=CCn1c(=O)c2cnc(Nc3ccc(N4CCN(C)CC4)cc3)nc2n1-c1ccc2c(n1)[C@@](O)(CC)CC2 [Freebase Form E] | more thermodynamically stable than the amorphous freebase | Solid state stability ([2]; 4 weeks at 25° C./60% RH, 40° C./75% RH and 60° C., 7 days at 80° C.): stable; Purity (area %) ([2]; Initial, for the 80° C. series): 99.44 area %; Form change on storage [2]: no form change; Water uptake (DVS) ([3]; listed as freebase Form E of Compound A): 0.6%; Form change after DVS test (XRPD) [3]: No form change; Form of residual solid (XRPD) ([4]; FaSSIF): Freebase Form E; Solubility ([4]; FaSSIF): 1400 µg/mL (≈ 2.66 mM); pH of supernatant ([4]; FaSSIF): 6.8; Form of residual solid (XRPD) ([4]; FeSSIF): Amorphous; Solubility ([4]; FeSSIF): 2600 µg/mL (≈ 4.94 mM); pH of supernatant ([4]; FeSSIF): 5.4; Form of residual solid (XRPD) ([4]; H2O): Freebase Form E; Solubility ([4]; H2O): 99 µg/mL (≈ 0.188 mM); pH of supernatant ([4]; H2O): 8.4; Form of residual solid (XRPD) ([4]; SGF): Freebase Form E; Solubility ([4]; SGF): 9000 µg/mL (≈ 17.1 mM); pH of supernatant ([4]; SGF): 6.6
2 | – | – | – | – | – | – | – | – | – | – | – | – | – | – | – | – | – | – | – | C=CCn1c(=O)c2cnc(Nc3ccc(N4CCN(C)CC4)cc3)nc2n1-c1ccc2c(n1)[C@@](O)(CC)CC2 [freebase Form J] | more thermodynamically stable than the amorphous freebase | –
3 | 98.85 area % | 100.1% | 98.91 area % | 100.2% | 98.82 area % | 100.1% | 98.85 area % | 100.1% | 98.25 area % | 99.5% | 97.80 area % | 99.1% | 99.02 area % | 100.0% | 98.77 area % | 99.7% | 98.44 area % | 99.4% | 98.72 area % | C=CCn1c(=O)c2cnc(Nc3ccc(N4CCN(C)CC4)cc3)nc2n1-c1ccc2c(n1)[C@@](O)(CC)CC2 [Adipate salt Form A] | more thermodynamically stable than the amorphous freebase | Solid state stability ([2]; 4 weeks at 25° C./60% RH and 40° C./75% RH, 2 weeks at 60° C., 3 days at 80° C.): stable; Purity (area %) ([2]; Initial, for the 80° C. series): 99.03 area %; Degradation ([2]; after 4 weeks at 60° C.): 0.9%; Degradation ([2]; after 7 days at 80° C.): 0.6%; Form change on storage [2]: no form change; Water uptake (DVS) [3]: 2.2%; Form change after DVS test (XRPD) [3]: No form change; Solubility ([4]; FaSSIF): 30800 µg/mL; pH of supernatant ([4]; FaSSIF): 4.8; Form of residual solid (XRPD) ([4]; FeSSIF): Adipate Salt Form A; Solubility ([4]; FeSSIF): 5600 µg/mL; pH of supernatant ([4]; FeSSIF): 4.8; Form of residual solid (XRPD) ([4]; H2O): Adipate Salt Form A; Solubility ([4]; H2O): 25500 µg/mL; pH of supernatant ([4]; H2O): 4.7; Form of residual solid (XRPD) ([4]; SGF): Adipate Salt Form A; Solubility ([4]; SGF): 34100 µg/mL; pH of supernatant ([4]; SGF): 4.4; Solubility comparison ([4]; SGF, H2O, FaSSIF, FeSSIF): higher solubility than freebase Form E of Compound A
